Test results as given in US8399465B2, “Compounds with two fused bicyclic heteroaryl moieties as modulators of leukotriene A4 hydrolase” (Janssen Pharmaceutica NV, priority 2009, dated 2013).
pIC50: −log10 of the molar value. Structures can show the parent of a compound that is named as a salt.

target: T1, recombinant human LTA4 hydrolase (rhLTA4H) (Homo sapiens, UniProt P09960); experiment: Recombinant human LTA4 hydrolase assay for LTA4 hydrolase inhibitor activity; type: biochemical; settings: not given
T1 construct: made in house; host or cells: Spodoptera frugiperda (Sf-9) cells, baculovirus (pFastBac1)
T1 sequence (P09960 1-611): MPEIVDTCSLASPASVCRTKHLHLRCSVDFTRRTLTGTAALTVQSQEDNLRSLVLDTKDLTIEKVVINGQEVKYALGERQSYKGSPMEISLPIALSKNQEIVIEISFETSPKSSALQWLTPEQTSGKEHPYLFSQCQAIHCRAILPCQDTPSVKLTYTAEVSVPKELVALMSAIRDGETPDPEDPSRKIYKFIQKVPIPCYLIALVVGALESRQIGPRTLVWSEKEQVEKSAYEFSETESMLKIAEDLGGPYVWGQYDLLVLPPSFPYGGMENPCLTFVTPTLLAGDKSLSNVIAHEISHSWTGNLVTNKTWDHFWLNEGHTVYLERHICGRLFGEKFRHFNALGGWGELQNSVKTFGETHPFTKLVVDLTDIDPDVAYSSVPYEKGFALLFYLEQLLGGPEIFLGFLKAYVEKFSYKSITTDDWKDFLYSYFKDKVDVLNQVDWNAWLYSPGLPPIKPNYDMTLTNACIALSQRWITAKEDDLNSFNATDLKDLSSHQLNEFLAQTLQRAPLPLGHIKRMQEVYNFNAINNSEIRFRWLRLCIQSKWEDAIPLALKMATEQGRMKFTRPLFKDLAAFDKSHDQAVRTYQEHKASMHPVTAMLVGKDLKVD
Protocol: Assay 1: Recombinant Human LTA4 Hydrolase Assay for LTA4 Hydrolase Inhibitor Activity
Compounds of the present invention were tested for LTA4 hydrolase inhibitor activity against recombinant human LTA4 hydrolase (rhLTA4H). Vectors were prepared and used to express rhLTA4H essentially as follows: LTA4 hydrolase encoding DNA was amplified by polymerase chain reaction (PCR) using a human placental cDNA library as a template. […] The amplified 1.9 kb DNA fragment encoding LTA4 hydrolase was isolated and cloned into the pFastBac1 vector (Invitrogen). Recombinant baculovirus was generated as described by the manufacturer, and used to infect Spodoptera frugiperda (Sf-9) cells. […] The purified enzyme solution was adjusted to contain 0.29 mg/mL LTA4 hydrolase, 50 mM Tris (pH 8.0), 150 mM NaCl, 5 mM dithiothreitol, 50% glycerol, and EDTA-free Complete protease inhibitor cocktail (Roche).
LTA4 substrate was prepared from the methyl ester of LTA4 (Cayman Chemical) by treatment with 67 equiv of NaOH under nitrogen at rt for 40 min. The LTA4 substrate in its free acid form was kept frozen at −80° C. until needed. Each compound was diluted to different concentrations in assay buffer (from Assay Designs) containing 10% DMSO. A 25-μL aliquot of each compound dilution was incubated for 10 min at rt with an equal volume of assay buffer containing 10 ng of recombinant human LTA4H. The solution was then adjusted to 200 μL with assay buffer. […] Each reaction was carried out at rt for 30 min. The reaction was stopped by diluting 10 μL of the reaction mixture with 200 μL of assay buffer. LTB4 was quantified in the diluted sample by a commercially available enzyme-linked immunoassay (Cayman Chemical Co.), as recommended by the manufacturer. Positive controls, under essentially identical conditions but without addition of an inhibitor compound, and negative controls, containing all assay components except enzyme, were routinely run in each experiment. IC50 values were determined by nonlinear regression of the activity data at different compound concentrations using Graphpad Prism 4.0, one site binding competition.
The values presented here are the result of a single determination or an average of two or more determinations. Compounds that were not tested are indicated as such by a “NT” designation.

Compound	pIC50
CC(=O)N1C[C@@H]2C[C@H]1CN2Cc1cc2cc(Oc3nc4cnccc4s3)ccc2o1 [Example 199, (1S,4S)-1-{5-[5-(Thiazolo[4,5-c]pyridin-2-yloxy)-benzofuran-2-ylmethyl]-2,5-diaza-bicyclo[2.2.1]hept-2-yl}-ethanone formate]	6.47

same assay, conditions: rhLTA4H, LTB4 by immunoassay; single determination or average of two or more; mark after value = form tested: ′ free base, ″ hydrochloride, ^ formate; read-out: IC50

Compound	pIC50
CC(=O)N1C[C@H]2CC[C@@H](C1)N2Cc1cc2cc(Oc3nc4cccnc4s3)ccc2o1 [Example 123, meso-1-{8-[5-(Thiazolo[5,4-b]pyridin-2-yloxy)-benzofuran-2-ylmethyl]-3,8-diaza-bicyclo[3.2.1]oct-3-yl}-ethanone]	7.05
CC(=O)N1C[C@H]2CC[C@@H](C1)N2Cc1cc2ccc(Oc3nc4cccnc4s3)cc2o1 [Example 124, meso-1-{8-[6-(Thiazolo[5,4-b]pyridin-2-yloxy)-benzofuran-2-ylmethyl]-3,8-diaza-bicyclo[3.2.1]oct-3-yl}-ethanone]	5.83
CC(=O)N[C@H]1C[C@H]2CC[C@@H](C1)N2Cc1cc2cc(Oc3nc4cccnc4s3)ccc2o1 [Example 125, meso-endo-N-{8-[5-(Thiazolo[5,4-b]pyridin-2-yloxy)-benzofuran-2-ylmethyl]-8-aza-bicyclo[3.2.1]oct-3-yl}-acetamide]	6.70
CC(=O)N[C@H]1C[C@H]2CC[C@@H](C1)N2Cc1cc2ccc(Oc3nc4cccnc4s3)cc2o1 [Example 126, meso-endo-N-{8-[6-(Thiazolo[5,4-b]pyridin-2-yloxy)-benzofuran-2-ylmethyl]-8-aza-bicyclo[3.2.1]oct-3-yl}-acetamide]	6.21
NC(=O)NC1CCN(Cc2cc3ccc(Oc4nc5ncccc5s4)cc3o2)C1 (stereo not drawn) [Example 127, 1-(1-{[6-([1,3]Thiazolo[4,5-b]pyridin-2-yloxy)-1-benzofuran-2-yl]methyl}pyrrolidin-3-yl)urea formate]	7.21
CS(=O)(=O)NC1CCN(Cc2cc3ccc(Oc4nc5ncccc5s4)cc3o2)C1 (stereo not drawn) [Example 128, N-(1-{[6-([1,3]thiazolo[4,5-b]pyridin-2-yloxy)-1-benzofuran-2-yl]methyl}pyrrolidin-3-yl)methanesulfonamide formate]	7.08
CC(=O)N1C[C@H]2CC[C@@H](C1)N2CCc1coc2cc(Oc3nc4ncccc4s3)ccc12 [Example 130, meso-1-(8-{2-[6-(Thiazolo[4,5-b]pyridin-2-yloxy)-benzofuran-3-yl]-ethyl}-3,8-diaza-bicyclo[3.2.1]oct-3-yl)-ethanone]	8.30
CC(=O)N[C@H]1C[C@H]2CC[C@@H](C1)N2CCc1coc2cc(Oc3nc4ncccc4s3)ccc12 [Example 131, meso-endo-N-(8-{2-[6-(Thiazolo[4,5-b]pyridin-2-yloxy)-benzofuran-3-yl]-ethyl}-8-aza-bicyclo[3.2.1]oct-3-yl)acetamide]	8.30
c1ccc2sc(Oc3ccc4cc(CN5CCCCC5)sc4c3)nc2c1 [Example 132, 2-(2-Piperidin-1-ylmethyl-benzo[b]thiophen-6-yloxy)-benzothiazole]	6.14
c1ccc2sc(Oc3ccc4cc(CN5CCOCC5)sc4c3)nc2c1 [Example 133, (2-Morpholin-4-ylmethyl-benzo[b]thiophen-6-yloxy)-benzothiazole]	6.33
c1cnc2nc(Oc3ccc4cc(CN5CCCCC5)sc4c3)sc2c1 [Example 136, 2-(2-Piperidin-1-ylmethyl-benzo[b]thiophen-6-yloxy)-thiazolo[4,5-b]pyridine]	6.93
NC(=O)C1CCN(Cc2cc3ccc(Oc4nc5ncccc5s4)cc3s2)CC1 [Example 138, 1-[6-(Thiazolo[4,5-b]pyridin-2-yloxy)-benzo[b]thiophen-2-ylmethyl]-piperidine-4-carboxylic acid amide]	6.77
CCOC(=O)C1CCN(CCc2coc3cc(Oc4nc5ccccc5s4)ccc23)CC1 [Example 149, 1-{2-[6-(Benzothiazol-2-yloxy)-benzofuran-3-yl]-ethyl}-piperidine-4-carboxylic acid ethyl ester]	6.77
FC(F)(F)C1CCN(Cc2coc3cc(Oc4nc5ncccc5s4)ccc23)CC1 [Example 163, 2-[3-(4-Trifluoromethyl-piperidin-1-ylmethyl)-benzofuran-6-yloxy]-thiazolo[4,5-b]pyridine]	6.97
CC(=O)N1CCCC2(CCN(Cc3cc4cc(Oc5nc6ncccc6s5)ccc4o3)C2)C1 (stereo not drawn) [Example 166, 1-{2-[5-(Thiazolo[4,5-b]pyridin-2-yloxy)-benzofuran-2-ylmethyl]-2,7-diaza-spiro[4.5]dec-7-yl}-ethanone]	6.54
NC(=O)N1C[C@H]2CC[C@@H](C1)N2Cc1cc2cc(Oc3nc4ccccc4s3)ccc2o1 [Example 173, meso-8-[5-(Benzothiazol-2-yloxy)-benzofuran-2-ylmethyl]-3,8-diaza-bicyclo[3.2.1]octane-3-carboxylic acid amide]	6.73
FC1CCN(Cc2cc3ccc(Oc4nc5ncccc5s4)cc3o2)CC1 [Example 190, 2-[2-(4-Fluoro-piperidin-1-ylmethyl)-benzofuran-6-yloxy]-thiazolo[4,5-b]pyridine formate]	6.94
CC(=O)N[C@H]1C[C@H]2CC[C@@H](C1)N2Cc1cc2cc(Oc3nc4cnccc4s3)ccc2o1 [Example 200, meso-endo-N-{8-[5-(Thiazolo[4,5-c]pyridin-2-yloxy)-benzofuran-2-ylmethyl]-8-aza-bicyclo[3.2.1]oct-3-yl}-acetamide formate]	5.95
CC(=O)N[C@H]1C[C@H]2CC[C@@H](C1)N2Cc1cc2ccc(Oc3nc4cnccc4s3)cc2o1 [Example 201, meso-endo-N-{8-[6-(Thiazolo[4,5-c]pyridin-2-yloxy)-benzofuran-2-ylmethyl]-8-aza-bicyclo[3.2.1]oct-3-yl}-acetamide]	6.63
CC(=O)N1C[C@@H]2C[C@H]1CN2Cc1cc2ccc(Oc3nc4cnccc4s3)cc2o1 [Example 203, (1S,4S)-1-{5-[6-(Thiazolo[4,5-c]pyridin-2-yloxy)-benzofuran-2-ylmethyl]-2,5-diaza-bicyclo[2.2.1]hept-2-yl}-ethanone]	5.59
CNC(=O)C1CCN(Cc2cc3ccc(Oc4nc5ncccc5s4)cc3o2)CC1 [Example 204, 1-[6-(Thiazolo[4,5-b]pyridin-2-yloxy)-benzofuran-2-ylmethyl]-piperidine-4-carboxylic acid methylamide]	6.77
O=C(C1CCN(Cc2cc3ccc(Oc4nc5ncccc5s4)cc3o2)CC1)N1CCCC1 [Example 205, Pyrrolidin-1-yl-{1-[6-(thiazolo[4,5-b]pyridin-2-yloxy)-benzofuran-2-ylmethyl]-piperidin-4-yl}-methanone]	6.92
CC(=O)N1C[C@@H]2C[C@H]1CN2Cc1coc2cc(Oc3nc4cccnc4s3)ccc12 [Example 221, (1S,4S)-1-{5-[6-(Thiazolo[5,4-b]pyridin-2-yloxy)-benzofuran-3-ylmethyl]-2,5-diaza-bicyclo[2.2.1]hept-2-yl}-ethanone]	6.64
CC(=O)N1C[C@@H]2C[C@H]1CN2Cc1coc2cc(Oc3nc4cnccc4s3)ccc12 [Example 222, (1S,4S)-1-{5-[6-(Thiazolo[4,5-c]pyridin-2-yloxy)-benzofuran-3-ylmethyl]-2,5-diaza-bicyclo[2.2.1]hept-2-yl}-ethanone]	6.44
CCOC(=O)C1CCN(Cc2coc3cc(Oc4nc5ccccc5s4)ccc23)CC1 [Example 223, 1-[6-(Benzothiazol-2-yloxy)-benzofuran-3-ylmethyl]-piperidine-4-carboxylic acid ethyl ester]	6.76
CC(C)(C)OC(=O)C1CCN(Cc2cc3ccc(Oc4nc5ncccc5s4)cc3o2)CC1 [Example 225, 1-[6-(Thiazolo[4,5-b]pyridin-2-yloxy)-benzofuran-2-ylmethyl]-piperidine-4-carboxylic acid tert-butyl ester]	6.12
